In patent US6312704A, “Orally administrable composition capable of providing enhanced bioavailability when ingested” (Gattefosse, S.A., priority 1993, dated 2001):

Experiments:
[1] = in vivo test on rats, plasma concentrations after oral administration of indomethacin; details: powder made into a suspension immediately before use
Protocol: In vivo tests were conducted on rats with indomethacin as active agent.
(§1) The proportions by weight of the different constituents of this mixture are:
An oral administration of indomethacin is first carried out according to the above composition.
A second series of tests consists in administering indomethacin orally in the form of powder made into a suspension immediately before use.

[2] = in vitro dissolution of indomethacin in a gastric medium at pH 1.2; format: physicochemical; details: gastric medium pH 1.2
Protocol: In all the examples, the complement by weight to […] of the composition is, in actual fact, represented by an anti-inflammatory active principle, namely indomethacin in Examples 1 to 8, and 12, hydrocortisone in Example 9 and diclofenac sodium in Example 10. In examples 1-12, the hydrophilic phase is represented by water which is known to be a simulation of the digestive milieu for in vitro tests.
By way of comparison, when the pure active agent (indomethacin) is tested, at best only 5% of this active agent is dissolved in one hour; and still by way of comparison, with hard gelatin capsules of this active principle which are currently on the market, only 4.7% of active agent dissolved is obtained at the end of one hour.
In this example, the rates of dissolution in vitro in a gastric medium (at pH =1.2), in which indomethacin alone has a rate of dissolution of less than 5% in the same medium, are compared.
as §1
In this example, the same components are used as in the preceding example, with different proportions, namely: […]

[3] = in vitro rate of dissolution of hydrocortisone in a gastric medium (pH 1.2); format: physicochemical
Description: In this example, the rates of dissolution of hydrocortisone in a gastric medium (at pH 1.2) are compared.
The same lipophilic phase and the same SA/CoSA mixture are used as in Example 8, but in the following proportions: […]

[4] = format: physicochemical; details: gastric medium pH 1.2
Description: The proportions by weight of the different constituents of this mixture are: […]

COc1ccc2c(c1)c(CC(=O)O)c(C)n2C(=O)c1ccc(Cl)cc1 [indomethacin]
kinetics obtained [1]: irregular and vary from one animal to another | concentration at 1 h ([1]; rat, in vivo, one hour): 1000 to 5000 ng/mL | concentration at 2 h ([1]; rat, in vivo, two hours): 1000 to 4000 ng/mL | percentage of the active agent dissolved at the end of one hour ([2]; one hour): ≤ 5% | rate of dissolution ([2]; indomethacin alone, time not stated): less than 5%

C[C@]12CCC(=O)C=C1CC[C@@H]1[C@@H]2[C@@H](O)C[C@@]2(C)[C@H]1CC[C@]2(O)C(=O)CO [hydrocortisone]
rate of dissolution in 45 minutes [3]: 10%

O=C(O)Cc1ccccc1Nc1c(Cl)cccc1Cl [diclofenac sodium]
rate of dissolution in 30 min ([4]; 30 min): 1% | solubility in gastric medium (in words) ([4]; powder form): almost insoluble
